Reference: patent publication US7803375B2, “Methods and compositions for treating conditions of the eye” (Massachusetts Eye and Ear Infirmary, priority 2005, dated 2010)

What was measured:
[1] = typical; cited from earlier work
Fas receptor = experiment: Retinal levels of Fas receptor after verteporfin PDT; type: in vivo; details: rat retina, FIG. 3

Compound: C=Cc1c(C)c2cc3nc(c(CC(=O)N[C@@H](CC(=O)O)C(=O)O)c4[nH]c(cc5nc(cc1[nH]2)C(C)=C5CC)c(C)c4C(=O)O)[C@@H](CCC(=O)O)[C@@H]3C [N-aspartyl chlorin e6]
- persistence in the target neovasculature [1]: about twenty

Compound: CC(=O)[O-].CC(=O)[O-].CCc1c(CC)c2cc3nc(cnc4cc(OCCOCCOCCOC)c(OCCOCCOCCOC)cc4ncc4nc(cc1[n-]2)C(CCCO)=C4C)C(C)=C3CCCO.O.[Lu+3] [lutetium texaphyrin]
- persistence in the target neovasculature [1]: about twenty

Compound: O=C([O-])c1c(Cl)c(Cl)c(Cl)c(Cl)c1-c1c2cc(I)c(=O)c(I)c-2oc2c(I)c([O-])c(I)cc12.[Na+].[Na+] [rose bengal]
- persistence in the target neovasculature [1]: about ten

Compound: benzoporphyrin derivative
- persistence in the target neovasculature [1]: about fifty

Compound: verteporfin
- retinal levels of the apoptotic death receptor Fas (Fas receptor): increases
